Key:
[1] = system: Primary murine macrophages/preosteoclasts; test: MTT viability assay; type: cell-based, mouse; settings: 10^-6 M, 20 ng/ml M-CSF, 1, 3 and 5 days of treatment, N=5
Procedure: MTT assay. For proliferation assay, macrophages were plated (4000 cells/well) into 96-well plate with standard medium supplemented with 20 ng of M-CSF. Cells were treated as indicated with either TiP, SNV, VIP (10^−6 M) or vehicle at first day of incubation. Cells viability was determined using dimethylthiazol-diphenyl-tetrazolium-bromide (MTT) after 1, 3 or 5 days. MTT was added to a final concentration of 5 mg/ml and incubated for 4 h at 37°C. After complete solubilization of the die in DMSO, plates were read at 570 nm in a colorimetric plate reader.
FIGURE 4 VIP and SNV alleviate the osteoclastogenic effect of TiP-induced inflammation. (A) Primary BMDM were exposed to TiP and RNA was collected after 24 h. mRNA expression are presented as Mean±SD fold change versus Control. * p<0.05 vs. Control. (B-D) Primary murine preosteoclasts were cultured in 20 ng/ml M-CSF and 50 ng/ml RANKL for 48 h. Conditioned medium from macrophages (Control) and macrophages exposed to Ti particles (Ti, as in A) was then added together with 10^-6M of VIP or SNV (or saline) for 48 h before TRAP staining. Data are Mean±SD for osteoclast % surface area (B) and number per well (C). (D) Representative images all acquired at a 4x original magnification. The scale bar for all images is in the upper left panel. n=8, #p<0.05 vs. Control; *p<0.05 vs. Ti, ANOVA. […]

[2] = matrix not given, ref Gozes et al., 1994, 1996; cited from earlier work
Text: VIP derivatives and conjugates were designed to include a lipophilic moiety or a shortened VIP chain ([Gozes and Fridkin, 1992]; [Gozes et al., 1994]; [Gozes et al., 1995]; [Gozes et al., 1996]; [Gozes et al., 1999]). Stearyl-norleucine-VIP (Stearyl-Nle^17VIP, SNV) is a lipophilic compound consisting of a VIP molecule with an N-terminal attachment of stearic acid to increase cell and tissue bioavailability and an exchange of the oxidation-vulnerable methionine at position 17 with the stable norleucine.

Guinea pigs = test: Study 003 skin sensitization: adjuvant and patch test; type: in vivo, guinea pig; settings: daily applications for 3 days, SNV 7 mg/animal (1000X)
Procedure: Toxicology. We performed toxicology studies for SNV that consisted of acute subcutaneous, intravenous and oral toxicity in rats, acute dermal toxicity in rabbits, skin sensitization using adjuvant and patch test in guinea pigs, and single and repeated (for 13 weeks) dose toxicity studies in rats. The latter was a 90-days repeated dose toxicity study, consisting of SNV once a day at three different doses to the penis and vagina of male and female rats, respectively. The compound was tested for the treatment of erectile dysfunction. The active dose (7 µg SNV) was chosen as the lowest dose for the study. The highest dosage group in the repeated dose toxicity study received 3,500 µg ([Gozes et al., 1994]). For study 001 (parts 1 through 3), the 1× dose consisted of 0.5 mg SNV dissolved in 7.1 ml vehicle (3.55 ml 10% Sefsol [glycerin monocaprylate] + 3.55 ml isopropanol) and 100µl/animal were administered; the 1000X dose consisted of 91 mg SNV dissolved in 1.3 ml vehicle (0.65 ml 10% Sefsol +0.65 ml isopropanol) and 100µl/animal were administered. For studies 002 through 004, the indicated doses of SNV (Table 1) were dissolved in 0.25 ml 10% Sefsol +0.25 ml 40% isopropanol (vehicle). The methodology for each of the toxicology studies is detailed in Table 1.

| Compound | Viability of the cells (MTT, optical density) [1] | Half-life [2] | Mortality (Guinea pigs; adjuvant and patch test) | Skin reactions (Guinea pigs; intradermal Freund's complete adjuvant and patch application, 3 males + 3 females per group) |
| --- | --- | --- | --- | --- |
| CC[C@H](C)[C@H](NC(=O)[C@H](CO)NC(=O)[C@H](CC(N)=O)NC(=O)[C@H](CC(C)C)NC(=O)[C@H](Cc1ccc(O)cc1)NC(=O)[C@H](CCCCN)NC(=O)[C@H](CCCCN)NC(=O)[C@@H](NC(=O)[C@H](C)NC(=O)[C@H](CCSC)NC(=O)[C@H](CCC(N)=O)NC(=O)[C@H](CCCCN)NC(=O)[C@H](CCCN=C(N)N)NC(=O)[C@H](CC(C)C)NC(=O)[C@H](CCCN=C(N)N)NC(=O)[C@@H](NC(=O)[C@H](Cc1ccc(O)cc1)NC(=O)[C@H](CC(N)=O)NC(=O)[C@H](CC(=O)O)NC(=O)[C@@H](NC(=O)[C@H](Cc1ccccc1)NC(=O)[C@@H](NC(=O)[C@H](C)NC(=O)[C@H](CC(=O)O)NC(=O)[C@H](CO)NC(=O)[C@@H](N)Cc1c[nH]cn1)C(C)C)[C@@H](C)O)[C@@H](C)O)C(C)C)C(=O)N[C@@H](CC(C)C)C(=O)N[C@@H](CC(N)=O)C(N)=O [VIP, Vasoactive intestinal peptide] | neither VIP nor SNV affected the viability | ~30 s |  |  |
| O=[N+]([O-])c1ccc(Cl)c([N+](=O)[O-])c1 [1%-chloro-2,4-dinitrobenzene, reference compound] |  |  | None | severe erythema, edema and necrosis |

Reference: PMC8131842, “Therapeutic Potential of Vasoactive Intestinal Peptide and its Derivative Stearyl-Norleucine-VIP in Inflammation-Induced Osteolysis” (Frontiers in Pharmacology, 2021)
